# Measurements reported in patent US20230072683A1, “PYRIDO-PYRIMIDIN DERIVATIVES AND PHARMACEUTICAL COMPOSITION, FOR USE IN PREVENTING OR TREATING PI3 KINASE RELATED DISEASES, COMPRISING SAME AS ACTIVE INGREDIENT” (BORYUNG PHARMACEUTICAL CO., LTD, priority 2019, published 2023).
# Read-outs that look alike come from different tables or passages of the source.
# Legend:
# [1] = target: PI3K-δ (PI3K(p1108/p857) (h)) (Homo sapiens, UniProt O00329); assay: Evaluation of inhibitory activity against PI3K-δ (HTRF kinase assay); type: biochemical; settings: for inhibition at 0.01 µM: compound concentration 0.01 μM, read-out: EXP_VALUE(% Inhibition) PI3K-δ 0.01 μM; for inhibition at 0.1 µM: read-out: EXP_VALUE(% Inhibition) PI3K-δ 0.1 μM
# Sequence of PI3K-δ (PI3K(p1108/p857) (h)) (O00329 whole entry, the tested form may be a part): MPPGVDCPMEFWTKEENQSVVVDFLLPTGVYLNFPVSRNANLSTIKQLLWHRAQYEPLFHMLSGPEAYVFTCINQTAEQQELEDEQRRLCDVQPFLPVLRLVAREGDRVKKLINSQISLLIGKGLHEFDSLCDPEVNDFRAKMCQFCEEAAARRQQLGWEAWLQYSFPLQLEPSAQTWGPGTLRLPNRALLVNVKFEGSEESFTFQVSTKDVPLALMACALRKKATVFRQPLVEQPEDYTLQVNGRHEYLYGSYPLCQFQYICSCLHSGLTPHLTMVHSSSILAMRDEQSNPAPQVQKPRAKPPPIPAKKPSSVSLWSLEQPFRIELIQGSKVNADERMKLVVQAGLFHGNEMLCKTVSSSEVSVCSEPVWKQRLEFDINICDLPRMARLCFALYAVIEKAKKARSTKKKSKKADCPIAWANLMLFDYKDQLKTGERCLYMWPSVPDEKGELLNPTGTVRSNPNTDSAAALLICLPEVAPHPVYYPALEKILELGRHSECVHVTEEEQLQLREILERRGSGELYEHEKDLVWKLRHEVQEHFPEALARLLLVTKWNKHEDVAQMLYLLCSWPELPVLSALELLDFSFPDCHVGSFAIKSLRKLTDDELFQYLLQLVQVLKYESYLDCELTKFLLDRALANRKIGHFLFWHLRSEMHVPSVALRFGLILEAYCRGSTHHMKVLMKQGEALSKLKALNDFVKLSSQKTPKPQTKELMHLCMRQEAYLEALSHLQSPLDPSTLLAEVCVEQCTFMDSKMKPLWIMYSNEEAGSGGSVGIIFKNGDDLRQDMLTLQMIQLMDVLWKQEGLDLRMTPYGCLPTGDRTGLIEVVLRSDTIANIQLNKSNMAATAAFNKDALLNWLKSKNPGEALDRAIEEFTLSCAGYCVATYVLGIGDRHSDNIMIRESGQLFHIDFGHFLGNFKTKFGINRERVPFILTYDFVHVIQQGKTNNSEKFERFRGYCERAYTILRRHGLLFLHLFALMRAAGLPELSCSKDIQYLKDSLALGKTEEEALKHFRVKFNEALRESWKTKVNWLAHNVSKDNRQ
# Sequence of PI3K-δ (PI3K(p1108/p857) (h)) (P27986 whole entry partner, the tested form may be a part): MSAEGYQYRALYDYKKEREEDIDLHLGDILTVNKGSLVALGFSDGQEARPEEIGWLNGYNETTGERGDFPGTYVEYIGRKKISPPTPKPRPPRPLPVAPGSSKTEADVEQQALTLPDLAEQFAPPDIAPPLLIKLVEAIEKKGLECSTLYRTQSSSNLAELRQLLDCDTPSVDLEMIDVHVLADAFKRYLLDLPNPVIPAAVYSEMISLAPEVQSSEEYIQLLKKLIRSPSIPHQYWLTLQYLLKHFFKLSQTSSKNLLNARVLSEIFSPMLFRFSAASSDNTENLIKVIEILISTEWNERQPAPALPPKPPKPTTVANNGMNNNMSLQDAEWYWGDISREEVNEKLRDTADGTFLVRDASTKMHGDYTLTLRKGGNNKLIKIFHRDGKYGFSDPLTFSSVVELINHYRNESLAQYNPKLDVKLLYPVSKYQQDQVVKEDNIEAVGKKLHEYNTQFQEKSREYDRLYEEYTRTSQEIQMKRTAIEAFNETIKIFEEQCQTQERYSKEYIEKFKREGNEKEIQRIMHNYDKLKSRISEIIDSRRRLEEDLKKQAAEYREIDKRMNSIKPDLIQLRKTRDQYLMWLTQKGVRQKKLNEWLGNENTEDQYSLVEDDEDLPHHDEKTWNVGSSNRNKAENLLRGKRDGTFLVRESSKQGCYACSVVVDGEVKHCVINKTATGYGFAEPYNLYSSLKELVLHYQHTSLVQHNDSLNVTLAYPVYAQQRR
# Summary of the method: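 HTRF read-out (665/620 nm ratio ×10000) used Eu-labelled anti-GST, GST-tagged GRP1 PH domain and streptavidin-allophycocyanin after EDTA/PIP3 stop.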
# DNA-PK(h) = DNA-PK(h) (Homo sapiens, UniProt P78527); assay: Evaluation of inhibitory activity against DNA-PK (HTRF kinase assay, GST-cMyc-p53 substrate); type: biochemical; settings: for inhibition at 0.01 µM: compound concentration 0.01 μM, read-out: EXP_VALUE(% Inhibition) DNA-PK(h) 0.01 μM; for inhibition at 0.1 µM: read-out: EXP_VALUE(% Inhibition) DNA-PK(h) 0.1 μM
# Summary of the method: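 p53 Ser15 phosphorylation by human DNA-PK was measured by time-resolved FRET ratio (665/620 nm ×10000) using Eu-labelled anti-phospho-Ser15 and d2 anti-GST antibodies. Substrate GST-cMyc-p53 at 50 μM; Mg/ATP-initiated, 30 min at room temperature, EDTA stop.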
inhibition at 0.01 µM [1] [%],inhibition at 0.01 µM (DNA-PK(h)) [%],inhibition at 0.1 µM ([1]; compound concentration 0.1 μM) [%],inhibition at 0.1 µM (DNA-PK(h); compound concentration 0.1 μM) [%],inhibition at 0.1 µM ([1]; compound at 0.1 μM) [%],inhibition at 0.1 µM (DNA-PK(h); compound at 0.1 μM) [%],SMILES
79,43,–,–,–,–,"C[C@H](Nc1ncnc2[nH]ccc(=O)c12)c1c(Cl)c2cccc(-c3cnc(C#N)nc3)c2c(=O)n1-c1ccccc1 [Example 44, (S)-5-(4-chloro-1-oxo-3-(1-((5-oxo-5,8-dihydropyrido[2,3-d]pyrimidin-4-yl)amino)ethyl)-2-phenyl-1,2-dihydroisoquinolin-8-yl)pyrimidine-2-carbonitrile]"
17,2,42,12,–,–,"C[C@H](Nc1ncnc2[nH]ccc(=O)c12)c1c(Cl)c2cccc(N3CCC4CCCCC4C3)c2c(=O)n1-c1ccccc1 (stereo partly drawn) [Example 328, 4′-chloro-3′-((S)-1-((5-oxo-5,8-dihydropyrido[2,3-d]pyrimidin-4-yl)amino)ethyl)-2′-phenyl-3,4,4a,5,6,7,8,8a-octahydro-1H-[2,8′-biisoquinolin]-1′(2′H)-one]"
–,–,–,–,42,24,"C[C@H](Nc1ncnc2[nH]ccc(=O)c12)c1c(Cl)c2cccc(S(=O)(=O)c3nc[nH]n3)c2c(=O)n1-c1ccccc1 [Example 401, (S)-4-((1-(8-((1H-1,2,4-triazol-3-yl)sulfonyl)-4-chloro-1-oxo-2-phenyl-1,2-dihydroisoquinolin-3-yl)ethyl)amino)pyrido[2,3-d]pyrimidin-5(8H)-one]"
76,27,–,–,–,–,"CCCC(=O)c1cccc2c(Cl)c([C@H](C)Nc3ncnc4[nH]ccc(=O)c34)n(-c3ccccc3)c(=O)c12 [Example 268, (S)-4-((1-(8-butyryl-4-chloro-1-oxo-2-phenyl-1,2-dihydroisoquinolin-3-yl)ethyl)amino)pyrido[2,3-d]pyrimidin-5(8H)-one]"
91,31,101,78,–,–,"C[C@H](Nc1ncnc2[nH]ccc(=O)c12)c1c(Cl)c2cccc(C(N)=O)c2c(=O)n1-c1ccccc1 [Example 291, (S)-4-chloro-1-oxo-3-(1-((5-oxo-5,8-dihydropyrido[2,3-d]pyrimidin-4-yl)amino)ethyl)-2-phenyl-1,2-dihydroisoquinoline-8-carboxamide]"
69,65,–,–,–,–,"Cc1csc(-c2cccc3c(Cl)c([C@H](C)Nc4ncnc5[nH]ccc(=O)c45)n(-c4ccccc4)c(=O)c23)c1 [Example 242, (S)-4-((1-(4-chloro-8-(4-methylthiophen-2-yl)-1-oxo-2-phenyl-1,2-dihydroisoquinolin-3-yl)ethyl)amino)pyrido[2,3-d]pyrimidin-5(8H)-one]"
3,38,19,79,–,–,"CCCSc1cccc2c(Cl)c([C@H](C)Nc3ncnc4[nH]ccc(=O)c34)n(-c3ccccc3)c(=O)c12 [Example 372, (S)-4-((1-(4-chloro-1-oxo-2-phenyl-8-(propylthio)-1,2-dihydroisoquinolin-3-yl)ethyl)amino)pyrido[2,3-d]pyrimidin-5(8H)-one]"
80,55,–,–,–,–,"C[C@H](Nc1ncnc2[nH]ccc(=O)c12)c1c(Cl)c2cccc(-c3cnc(N4CCN(C)CC4)cn3)c2c(=O)n1-c1ccccc1 [Example 211, (S)-4-((1-(4-chloro-8-(5-(4-methylpiperazin-1-yl)pyrazin-2-yl)-1-oxo-2-phenyl-1,2-dihydroisoquinolin-3-yl)ethyl)amino)pyrido[2,3-d]pyrimidin-5(8H)-one]"
92,63,–,–,–,–,"CC(=O)c1cccc2c(Cl)c([C@H](C)Nc3ncnc4[nH]ccc(=O)c34)n(-c3ccccc3)c(=O)c12 [Example 267, (S)-4-((1-(8-acetyl-4-chloro-1-oxo-2-phenyl-1,2-dihydroisoquinolin-3-yl)ethyl)amino)pyrido[2,3-d]pyrimidin-5(8H)-one]"
40,67,–,–,–,–,"COc1cc(OC)cc(-c2cccc3c(Cl)c([C@H](C)Nc4ncnc5[nH]ccc(=O)c45)n(-c4ccccc4)c(=O)c23)c1 [Example 169, (S)-4-((1-(4-chloro-8-(3,5-dimethoxyphenyl)-1-oxo-2-phenyl-1,2-dihydroisoquinolin-3-yl)ethyl)amino)pyrido[2,3-d]pyrimidin-5(8H)-one]"
9,3,–,–,–,–,"COc1cnc(-n2ccc(=O)c3c(N[C@@H](C)c4c(Cl)c5ccccc5c(=O)n4-c4ccccc4)ncnc32)nc1 [Example 43, (S)-4-((1-(4-chloro-1-oxo-2-phenyl-1,2-dihydroisoquinolin-3-yl)ethyl)amino)-8-(5-methoxypyrimidin-2-yl)pyrido[2,3-d]pyrimidin-5(8H)-one]"
75,13,–,–,–,–,"C[C@H](Nc1ncnc2[nH]ccc(=O)c12)c1c(Cl)c2cccc(C(=O)NCCN3CCOCC3)c2c(=O)n1-c1ccccc1 [Example 281, (S)-4-chloro-N-(2-morpholinoethyl)-1-oxo-3-(1-((5-oxo-5,8-dihydropyrido[2,3-d]pyrimidin-4-yl)amino)ethyl)-2-phenyl-1,2-dihydroisoquinoline-8-carboxamide]"
102,6,114,21,–,–,"C[C@H](Nc1ncnc2[nH]ccc(=O)c12)c1cc2cccc(-c3cccnc3)c2c(=O)n1-c1ccccc1 [Example 12, (S)-4-((1-(1-oxo-2-phenyl-8-(pyridin-3-yl)-1,2-dihydroisoquinolin-3-yl)ethyl)amino)pyrido[2,3-d]pyrimidin-5(8H)-one]"
94,74,–,–,–,–,"Cc1nc(-c2ccc(-c3cccc4c(Cl)c([C@H](C)Nc5ncnc6[nH]ccc(=O)c56)n(-c5ccccc5)c(=O)c34)cc2)no1 [Example 160, (S)-4-((1-(4-chloro-8-(4-(5-methyl-1,2,4-oxadiazol-3-yl)phenyl)-1-oxo-2-phenyl-1,2-dihydroisoquinolin-3-yl)ethyl)amino)pyrido[2,3-d]pyrimidin-5(8H)-one]"
72,25,–,–,–,–,"C[C@H](Nc1ncnc2[nH]ccc(=O)c12)c1c(Cl)c2cccc(-c3cc(F)c4c(c3)NCCO4)c2c(=O)n1-c1ccccc1 [Example 192, (S)-4-((1-(4-chloro-8-(8-fluoro-3,4-dihydro-2H-benzo[b] [1,4]oxazin-6-yl)-1-oxo-2-phenyl-1,2-dihydroisoquinolin-3-yl)ethyl)amino)pyrido[2,3-d]pyrimidin-5(8H)-one]"
99,8,–,–,–,–,"C[C@H](Nc1ncnc2[nH]ccc(=O)c12)c1c(Cl)c2cccc(C(=O)NC3CCC3)c2c(=O)n1-c1ccccc1 [Example 277, (S)-4-chloro-N-cyclobutyl-1-oxo-3-(1-((5-oxo-5,8-dihydropyrido[2,3-d]pyrimidin-4-yl)amino)ethyl)-2-phenyl-1,2-dihydroisoquinoline-8-carboxamide]"
51,74,94,96,–,–,"C[C@H](Nc1ncnc2[nH]ccc(=O)c12)c1c(Cl)c2cccc(-c3ccc(C(=O)N(C)C)cc3)c2c(=O)n1-c1ccccc1 [Example 139, (S)-4-(4-chloro-1-oxo-3-(1-((5-oxo-5,8-dihydropyrido[2,3-d]pyrimidin-4-yl)amino)ethyl)-2-phenyl-1,2-dihydroisoquinolin-8-yl)-N, N-dimethylbenzamide]"
95,87,–,–,–,–,"COc1ccc(-c2cccc3c(Cl)c([C@H](C)Nc4ncnc5[nH]ccc(=O)c45)n(-c4ccccc4)c(=O)c23)cc1OC [Example 155, (S)-4-((1-(4-chloro-8-(3,4-dimethoxyphenyl)-1-oxo-2-phenyl-1,2-dihydroisoquinolin-3-yl)ethyl)amino)pyrido[2,3-d]pyrimidin-5(8H)-one]"
73,7,82,41,–,–,"C[C@H](Nc1ncnc2[nH]ccc(=O)c12)c1cc2cccc(-c3ccc(N(C)C)nc3)c2c(=O)n1-c1ccccc1 [Example 264, (S)-4-((1-(8-(6-(dimethylamino)pyridin-3-yl)-1-oxo-2-phenyl-1,2-dihydroisoquinolin-3-yl)ethyl)amino)pyrido[2,3-d]pyrimidin-5(8H)-one]"
6,7,19,14,–,–,"C[C@H](Nc1ncnc2[nH]ccc(=O)c12)c1c(Cl)c2cccc(N3CCC(c4ccccc4)CC3)c2c(=O)n1-c1ccccc1 [Example 336, (S)-4-((1-(4-chloro-1-oxo-2-phenyl-8-(4-phenylpiperidin-1-yl)-1,2-dihydroisoquinolin-3-yl)ethyl)amino)pyrido[2,3-d]pyrimidin-5(8H)-one]"
69,61,–,–,–,–,"COc1ncc(-c2cccc3c(Cl)c([C@H](C)Nc4ncnc5[nH]ccc(=O)c45)n(-c4ccccc4)c(=O)c23)nc1OC [Example 28, (S)-4-((1-(4-chloro-8-(5,6-dimethoxypyrazin-2-yl)-1-oxo-2-phenyl-1,2-dihydroisoquinolin-3-yl)ethyl)amino)pyrido[2,3-d]pyrimidin-5(8H)-one]"
